# Test results published in patent US4160829A, “Antibacterial 1,2,4-oxadiazolylacetamido cephalosporins” (Gist-Brocades N.V., priority 1972, dated 1979).
# Where two headings read alike, the source gives them in different places.
# Legend:
# Strep.haem A 1088 = experiment: agar serial dilution test; assay type: cell-based, Streptococcus haemolyticus; conditions: Streptococcus, A1088, 24 hours, 37° C., read-out: minimal inhibitory concentration (MIC)
# Staph.aureus A 355 [1] = experiment: micro serial dilution test; assay type: cell-based, Staphylococcus aureus; conditions: Staphylococcus aureus, read-out: minimal inhibitory concentration (MIC)
# [2] = test system: Pseud.aerug. Wyeth A 1058; experiment: agar serial dilution test; assay type: cell-based; conditions: agar serial dilution, 24 hours, 37° C.; read-out: minimal inhibitory concentration (MIC)
# Salm.typh. R 172 = experiment: agar serial dilution test; assay type: cell-based; conditions: 24 h, read-out: minimal inhibitory concentration (MIC)
# Staph.aureus A 321 [3] = experiment: agar serial dilution test; assay type: cell-based, Staphylococcus aureus; conditions: Staphylococcus aureus, A321, 24 h, agar serial dilution, 24 hours, 37° C.; read-out: minimal inhibitory concentration (MIC)
# Staph.aureus A 2000 [4] = experiment: agar serial dilution test; assay type: cell-based, Staphylococcus aureus; conditions: Staphylococcus aureus, A2000, 24 h, agar serial dilution, 24 hours, 37° C.; read-out: minimal inhibitory concentration (MIC)
# Prot.mirab. H 3 [5] = experiment: agar serial dilution test; assay type: cell-based, Proteus mirabilis; conditions: Proteus mirabilis; agar serial dilution, 24 hours, 37° C.; read-out: minimal inhibitory concentration (MIC)
# Actinob.equ. T 3 = experiment: agar serial dilution test; assay type: cell-based; conditions: 24 hours, 37° C., read-out: minimal inhibitory concentration (MIC)
# Prot.rettg. A 821 [6] = experiment: agar serial dilution test; assay type: cell-based, Proteus rettgeri; conditions: Providencia rettgeri, 24 h, agar serial dilution, 24 hours, 37° C.; read-out: minimal inhibitory concentration (MIC)
# Prot.morg. 2241 [7] = experiment: agar serial dilution test; assay type: cell-based; conditions: 24 h, agar serial dilution, 24 hours, 37° C.; read-out: minimal inhibitory concentration (MIC)
# Bruc. Suis A 2126 = experiment: agar serial dilution test; assay type: cell-based; conditions: Brucella suis, 24 h, read-out: minimal inhibitory concentration (MIC)
# Past.multo. A 723 [8] = experiment: agar serial dilution test; assay type: cell-based, Pasteurella multocida; conditions: Pasteurella multocida; agar serial dilution, 24 hours, 37° C.; read-out: minimal inhibitory concentration (MIC)
# Strep. faec. L 80 [9] = experiment: agar serial dilution test; assay type: cell-based, Streptococcus faecalis; conditions: Enterococcus faecalis; agar serial dilution, 24 hours, 37° C.; read-out: minimal inhibitory concentration (MIC)
# Staph.aureus A 2001 [10] = experiment: agar serial dilution test; assay type: cell-based, Staphylococcus aureus; conditions: Staphylococcus aureus, A2001, 24 h, agar serial dilution, 24 hours, 37° C.; read-out: minimal inhibitory concentration (MIC)
# Sarc. lutea ATCC 9341 = experiment: agar serial dilution test; assay type: cell-based; conditions: Micrococcus luteus, ATCC9341, 24 hours, 37° C., read-out: minimal inhibitory concentration (MIC)
# Kleb.pneum. A 809 [11] = experiment: agar serial dilution test; assay type: cell-based, Klebsiella pneumoniae; conditions: Klebsiella pneumoniae; agar serial dilution, 24 hours, 37° C.; read-out: minimal inhibitory concentration (MIC)
# Pseud.aerug. H 10 [12] = experiment: agar serial dilution test; assay type: cell-based; conditions: agar serial dilution, 24 hours, 37° C.; read-out: minimal inhibitory concentration (MIC)
# Prot.mirab. A 1200 [13] = experiment: micro serial dilution test; assay type: cell-based; conditions: Proteus mirabilis; micro serial dilution (in brackets), about 18 hours, 30° C. or 37° C.; read-out: minimal inhibitory concentration (MIC)
# Staph.aureus A 2001 [14] = experiment: micro serial dilution test; assay type: cell-based, Staphylococcus aureus; conditions: Staphylococcus aureus, A2001, 18 h, micro serial dilution (in brackets), about 18 hours, 30° C. or 37° C.; read-out: minimal inhibitory concentration (MIC)
# Pseud.aerug. 2396 [15] = experiment: agar serial dilution test; assay type: cell-based; conditions: agar serial dilution, 24 hours, 37° C.; read-out: minimal inhibitory concentration (MIC)
# Esch.coli U 20 [16] = experiment: agar serial dilution test; assay type: cell-based, Escherichia coli; conditions: Escherichia coli, U20; agar serial dilution, 24 hours, 37° C.; read-out: minimal inhibitory concentration (MIC)
# Prot.mirab. L 93 [17] = experiment: agar serial dilution test; assay type: cell-based, Proteus mirabilis; conditions: Proteus mirabilis; agar serial dilution, 24 hours, 37° C.; read-out: minimal inhibitory concentration (MIC)
# Salm.dubl. P 43 [18] = experiment: agar serial dilution test; assay type: cell-based, Salmonella dublin; conditions: Salmonella enterica; agar serial dilution, 24 hours, 37° C.; read-out: minimal inhibitory concentration (MIC)
# Staph.aureus A 355 [19] = experiment: agar serial dilution test; conditions: Staphylococcus aureus, A355, 24 h, read-out: minimal inhibitory concentration (MIC), agar serial dilution, 24 hours, 37° C.; penicillinase-producing strain
# Bac.Subt.ATCC 6633 [20] = experiment: agar serial dilution test; assay type: cell-based, Bacillus subtilis; conditions: Bacillus subtilis, ATCC6633, 24 h, agar serial dilution, 24 hours, 37° C.; read-out: minimal inhibitory concentration (MIC)
# Staph.aureus A 2000 [21] = experiment: micro serial dilution test; assay type: cell-based, Staphylococcus aureus; conditions: Staphylococcus aureus, A2000, 18 h, micro serial dilution (in brackets), about 18 hours, 30° C. or 37° C.; read-out: minimal inhibitory concentration (MIC)
# Dipl.pneum. L 54 [22] = experiment: agar serial dilution test; assay type: cell-based, Diplococcus pneumoniae; conditions: Streptococcus pneumoniae; agar serial dilution, 24 hours, 37° C.; read-out: minimal inhibitory concentration (MIC)
# Prot.mirab. A 1200 [23] = experiment: agar serial dilution test; assay type: cell-based, Proteus mirabilis; conditions: Proteus mirabilis, 24 h, agar serial dilution, 24 hours, 37° C.; read-out: minimal inhibitory concentration (MIC)
# Strep. faec. L 80 [24] = experiment: micro serial dilution test; assay type: cell-based, Streptococcus faecalis; conditions: Enterococcus faecalis, read-out: minimal inhibitory concentration (MIC)
# Kleb.pneum. A 809 [25] = experiment: micro serial dilution test; assay type: cell-based; conditions: Klebsiella pneumoniae, read-out: minimal inhibitory concentration (MIC)
# Dipl.pneum. L 54 [26] = experiment: micro serial dilution test; assay type: cell-based, Diplococcus pneumoniae; conditions: Streptococcus pneumoniae, read-out: minimal inhibitory concentration (MIC)
# Strep.haem. A 266 = experiment: micro serial dilution test; assay type: cell-based, Streptococcus haemolyticus; conditions: Streptococcus, read-out: minimal inhibitory concentration (MIC)
# Bac.Subt.ATCC 6633 [27] = experiment: micro serial dilution test; assay type: cell-based; conditions: Bacillus subtilis, read-out: minimal inhibitory concentration (MIC)
# Staph.aureus A 321 [28] = experiment: micro serial dilution test; assay type: cell-based; conditions: Staphylococcus aureus, read-out: minimal inhibitory concentration (MIC)
# Pseud.aerug. 2396 [29] = experiment: micro serial dilution test; assay type: cell-based; conditions: read-out: minimal inhibitory concentration (MIC)
# Haem.infl. A 1030 = experiment: micro serial dilution test; assay type: cell-based; conditions: 18 h, read-out: minimal inhibitory concentration (MIC)
# Prot.morg. 2241 [30] = experiment: micro serial dilution test; assay type: cell-based; conditions: read-out: minimal inhibitory concentration (MIC)
# Past.multo. A 723 [31] = experiment: micro serial dilution test; assay type: cell-based; conditions: Pasteurella multocida, read-out: minimal inhibitory concentration (MIC)
# Prot.rettg. A 821 [32] = experiment: micro serial dilution test; assay type: cell-based, Proteus rettgeri; conditions: Providencia rettgeri, read-out: minimal inhibitory concentration (MIC)
# Salm.dubl. P 43 [33] = experiment: micro serial dilution test; assay type: cell-based, Salmonella dublin; conditions: Salmonella enterica, read-out: minimal inhibitory concentration (MIC)
# Shig.equir. T 3 = experiment: micro serial dilution test; assay type: cell-based; conditions: micro serial dilution (in brackets), about 18 hours, 30° C. or 37° C.; read-out: minimal inhibitory concentration (MIC)
# Source text: Two drops of a stock solution of the test compound (antibiotic) in a known concentration were brought into the first hole of a test plate with 9 numbered holes with a sterile Pasteur pipette. After rinsing this pipette three times with a physiological NaCl-solution, two drops of a stock solution of the test organism in a culture medium were brought in all the holes except for hole 8. In the first hole, the solution of the tested compound had been half diluted, then by stirring the liquid in the first hole and adding two drops of this mixture to the second hole and so on until hole 8, dilutions of the test compound solution were obtained in geometrical progression. The hole 9 contained no antibiotic and served for checking the growth of the testogranism in a blank medium. The test plate was incubated at 30° C. or 37° C. for about 18 hours.
# Bruc.melit. A 488 = experiment: microbe, parasite or virus in culture; assay type: cell-based; conditions: Brucella melitensis, 18 h, read-out: minimal inhibitory concentration (MIC)
# Esch.coli U 20 [34] = experiment: micro serial dilution test; assay type: cell-based; conditions: Escherichia coli, read-out: minimal inhibitory concentration (MIC)
# [35] = test system: Pseud.aerug. Wyeth A 1058; experiment: micro serial dilution test; assay type: cell-based; conditions: read-out: minimal inhibitory concentration (MIC)
# Prot.mirab. L 93 [36] = experiment: micro serial dilution test; assay type: cell-based; conditions: Proteus mirabilis, read-out: minimal inhibitory concentration (MIC)
# Pseud.aerug. H 10 [37] = experiment: micro serial dilution test; assay type: cell-based; conditions: read-out: minimal inhibitory concentration (MIC)
# Prot.mirab. H 3 [38] = experiment: micro serial dilution test; assay type: cell-based; conditions: Proteus mirabilis, read-out: minimal inhibitory concentration (MIC)
# [39] = A355, micro serial dilution (in brackets), about 18 hours, 30° C. or 37° C., penicillinase-producing strain
# [40] = micro serial dilution (in brackets), about 18 hours, 30° C. or 37° C.
compound,measurement,setting,value
"Cc1nc(CC(=O)N[C@@H]2C(=O)N3C(C(=O)O)=C(CSc4nnnn4C)CS[C@H]23)no1 [41 B, 7-[5-methyl-1,2,4-oxadiazol-3-yl-acetamido]-3-[1-methyl-tetrazol-5-yl-mercaptomethyl]-3-cephem-4-carboxylic acid]",MIC,Strep.haem A 1088,0.5 µg/mL
same,MIC,Staph.aureus A 355 [1]; [39],0.9 µg/mL
same,MIC,[2],100 µg/mL
same,MIC,Salm.typh. R 172,1.5 µg/mL
same,MIC,Staph.aureus A 321 [3],0.25 µg/mL
same,MIC,Staph.aureus A 2000 [4],1 µg/mL
same,MIC,Prot.mirab. H 3 [5],12.5 µg/mL
same,MIC,Actinob.equ. T 3,0.5 µg/mL
same,MIC,Prot.rettg. A 821 [6],0.5 µg/mL
same,MIC,Prot.morg. 2241 [7],100 µg/mL
same,MIC,Bruc. Suis A 2126,1 µg/mL
same,MIC,Past.multo. A 723 [8],1.5 µg/mL
same,MIC,Strep. faec. L 80 [9],> 100 µg/mL
same,MIC,Staph.aureus A 2001 [10],0.5 µg/mL
same,MIC,Sarc. lutea ATCC 9341,0.5 µg/mL
same,MIC,Kleb.pneum. A 809 [11],1 µg/mL
same,MIC,Pseud.aerug. H 10 [12],100 µg/mL
same,MIC,Prot.mirab. A 1200 [13],5 µg/mL
same,MIC,Staph.aureus A 2001 [14],0.6 µg/mL
same,MIC,Pseud.aerug. 2396 [15],100 µg/mL
same,MIC,Esch.coli U 20 [16],1.5 µg/mL
same,MIC,Prot.mirab. L 93 [17],12.5 µg/mL
same,MIC,Salm.dubl. P 43 [18],1.5 µg/mL
same,MIC,Staph.aureus A 355 [19],1 µg/mL
same,MIC,Bac.Subt.ATCC 6633 [20],0.5 µg/mL
same,MIC,Staph.aureus A 2000 [21],0.6 µg/mL
same,MIC,Dipl.pneum. L 54 [22],1.5 µg/mL
same,MIC,Prot.mirab. A 1200 [23],25 µg/mL
CC1(C)S[C@@H]2[C@H](NC(=O)Cc3ccccc3)C(=O)N2[C@H]1C(=O)O [Penicillin G],MIC,Strep. faec. L 80 [24]; [40],4 µg/mL
same,MIC,Kleb.pneum. A 809 [25]; [40],100 µg/mL
same,MIC,Dipl.pneum. L 54 [26]; [40],0.13 µg/mL
same,MIC,Staph.aureus A 355 [1]; [39],10 µg/mL
same,MIC,Strep.haem. A 266; [40],0.013 µg/mL
same,MIC,"Bac.Subt.ATCC 6633 [27]; ATCC6633, micro serial dilution (in brackets), about 18 hours, 30° C. or 37° C.",0.006 µg/mL
same,MIC,"Staph.aureus A 321 [28]; A321, micro serial dilution (in brackets), about 18 hours, 30° C. or 37° C.",0.03 µg/mL
same,MIC,Pseud.aerug. 2396 [29]; [40],> 100 µg/mL
same,MIC,Haem.infl. A 1030; [40],0.5 µg/mL
same,MIC,Prot.morg. 2241 [30]; [40],> 100 µg/mL
same,MIC,Past.multo. A 723 [31]; [40],0.2 µg/mL
same,MIC,Prot.rettg. A 821 [32]; [40],25 µg/mL
same,MIC,Salm.dubl. P 43 [33]; [40],5 µg/mL
same,MIC,Shig.equir. T 3,0.25 µg/mL
same,MIC,Bruc.melit. A 488,0.25 µg/mL
same,MIC,"Esch.coli U 20 [34]; U20, micro serial dilution (in brackets), about 18 hours, 30° C. or 37° C.",40 µg/mL
same,MIC,[35]; [40],100 µg/mL
same,MIC,Prot.mirab. L 93 [36]; [40],0.5 µg/mL
same,MIC,Pseud.aerug. H 10 [37]; [40],> 100 µg/mL
same,MIC,Prot.mirab. H 3 [38]; [40],7.5 µg/mL
CC1(C)S[C@@H]2[C@H](NC(=O)COc3ccccc3)C(=O)N2[C@H]1C(=O)O [Penicillin V],MIC,Strep. faec. L 80 [24]; 18 h,5 µg/mL
same,MIC,Kleb.pneum. A 809 [25]; 18 h,100 µg/mL
same,MIC,Dipl.pneum. L 54 [26]; 18 h,1 µg/mL
same,MIC,"Staph.aureus A 355 [1]; A355, 18 h",25 µg/mL
same,MIC,Strep.haem. A 266; 18 h,0.2 µg/mL
same,MIC,"Bac.Subt.ATCC 6633 [27]; ATCC6633, 18 h",0.002 µg/mL
same,MIC,"Staph.aureus A 321 [28]; A321, 18 h",0.045 µg/mL
same,MIC,Pseud.aerug. 2396 [29]; 18 h,100 µg/mL
same,MIC,Haem.infl. A 1030,1 µg/mL
same,MIC,Prot.morg. 2241 [30]; 18 h,> 100 µg/mL
same,MIC,Past.multo. A 723 [31]; 18 h,0.75 µg/mL
same,MIC,Prot.rettg. A 821 [32]; 18 h,100 µg/mL
same,MIC,Salm.dubl. P 43 [33]; 18 h,> 100 µg/mL
same,MIC,Shig.equir. T 3,5 µg/mL
same,MIC,Bruc.melit. A 488,1 µg/mL
same,MIC,"Esch.coli U 20 [34]; U20, 18 h",100 µg/mL
same,MIC,[35]; 18 h,> 100 µg/mL
same,MIC,Prot.mirab. L 93 [36]; 18 h,10 µg/mL
same,MIC,Pseud.aerug. H 10 [37]; 18 h,> 100 µg/mL
same,MIC,Prot.mirab. H 3 [38]; 18 h,100 µg/mL
